US20240132479A1, “THERAPEUTIC COMPOUNDS AND USES THEREOF” (Board of Trustees of Michigan State University, priority 2021, published 2024)
In brackets after ≈: the same amount, converted by molar mass.

Experiments:
[1] = tested on: rifampin resistant (RIF:rpoBS450L) strain (ATCC #35838); assay type: cell-based, Mycobacterium tuberculosis
[2] = tested on: isoniazid resistant (INH: katGdel) strain (MS015); assay: microbe, parasite or virus in culture; assay type: cell-based; details: Mycobacterium tuberculosis, H37RV, read-out: MIC H37Rv (katG^del)
[3] = tested on: moxifloxacin resistant (MOX: gyrD94K) strain (MOX3); assay type: cell-based, Mycobacterium tuberculosis

Structure (SMILES)	MIC H37Rv (rpoB^S450L) [1]	MIC [2]	MIC H37Rv (gyrA^D94K) [3]
CC(C)N(C(=O)CCc1nc2cc(Cl)c(Cl)cc2[nH]1)C(C)C [Example 19]	≤0.125 µg/mL	≤ 0.125 µg/mL	≤0.125 µg/mL
Cc1cc2nc(CCC(=O)N(C(C)C)C(C)C)[nH]c2cc1C [Example 21A]	0.25 µg/mL (≈ 0.829 µM)	≤ 0.125 µg/mL	≤0.125 µg/mL
Cc1cc2nc(SCC(=O)N(C(C)C)C(C)C)[nH]c2cc1C [Example 2, 2-[(5,6-dimethyl-1H-1,3-benzodiazol-2-yl)sulfanyl]-N,N-bis(propan-2-yl)acetamide]	0.25 µg/mL (≈ 0.783 µM)	0.5 µg/mL (≈ 1.57 µM)	0.5 µg/mL (≈ 1.57 µM)
